Holding throughout (type): cell-based
The subject of assay [1] is infection-causing organisms. As to the kind of experiment: Laboratory testing of the coated elongate member in standard hemodialysis catheters. The conditions noted are these: 250 μg on the elongate member; catheters containing saline, heparin-saline, or saline with 4% sodium citrate. As for the experimental part:
The safety profile of the invention can be enhanced by limiting the amount of chlorhexidine acetate available to enter the bloodstream, the preferred maximum amount of chlorhexidine acetate on the elongate member is 2000 μg, more preferred is 1000 μg, and most preferred is 350 μg.

A further assay relates to Candida albicans. As to the kind of experiment: Coated cap luer against Candida albicans seeded within the catheter's luer region. The conditions noted are these: 50 μg coated on the cap's luer portion. The protocol:
For instance, if using a chlorhexidine based antimicrobial, approximately 50 μg of chlorhexidine acetate can be effective in some embodiments. […] The caps containing the coated luers killed all of the Candida albicans that were seeded within the catheter's luer region. Within the same experiment, the Candida albicans remained viable when uncoated caps were used. Greater than 5 μg chlorhexidine acetate on the luer region is effective; 10 μg to 300 μg is preferred, and 30 μg to 80 μg is most preferred.

Assay [2] concerns Candida albicans, Pseudomonas aeruginosa, Staphylococcus aureus, and Escherichia coli. The assay is described as follows: Laboratory testing of elongate members in catheters under a variety of lock solutions and challenge organisms. The conditions noted are these: lock solutions saline, heparinized-saline, 4% sodium citrate solution, human serum. The protocol:
The minimum amount of antimicrobial agent on elongate member 33 was determined through laboratory testing in which elongate members were placed into catheters under a variety of lock solutions and challenge organisms. The type of lock solution was varied among saline, heparinized-saline, 4% sodium citrate solution, and human serum. A variety of challenge organisms were used, such as Candida albicans, Pseudomonas aeruginosa, Staphylococcus aureus, and Escherichia coli.

Molecules are shown by their SMILES.

Consider `CC(=O)O.CC(=O)O.NC(=N\CCCCCC/N=C(N)/N=C(\N)Nc1ccc(Cl)cc1)/N=C(\N)Nc1ccc(Cl)cc1` [chlorhexidine acetate], for which, in assay [1], the “reduction in number of infection-causing organisms” value is on record as > 10,000 ×. Also, the “kill of Candida albicans seeded within the catheter's luer region” value with Candida albicans is recorded as “killed all”. In addition, the “organisms killed in the catheter versus amount on the elongate member” value in assay [2] was “dose response”.

For the origin of these results see patent publication US12697477B2, “Device for delivery of antimicrobial agent into a medical device” (ICU Medical, Inc., priority 2011, dated 2026).
